Measurements as given in the PolyMetriX glass transition set.

Row | Structure (SMILES) | glass transition temperature
1 | *Oc1ccc(C(C)(C)c2ccc(OC(=O)CN(CC(*)=O)c3ccc(/N=N/c4ccc([N+](=O)[O-])cc4)cc3)cc2)cc1 (repeat unit) | 152.00 °C
2 | *CCCC(C)(C)CNC(=O)C(=O)N* (repeat unit) | 109.00 °C
3 | *c1ccc(C(c2ccc(-c3nc4ccc(-c5ccc6nc(*)[nH]c6c5)cc4[nH]3)cc2)(C(F)(F)F)C(F)(F)F)cc1 (repeat unit) | 269.00 °C
4 | *Oc1ccc(OC(=O)c2ccc(C(*)=O)cc2)cc1C1CC2CCC1C2 (repeat unit) | 267.00 °C
5 | *C(*)C(=O)OC(C)C (repeat unit) | 70.00 °C
6 | */C(Cl)=C(/*)CCCC (repeat unit) | 190.00 °C
7 | *Oc1ccc(CC(NC(=O)Cc2ccc(OC(=O)CCCCCCC(*)=O)cc2)C(=O)OCCCCCC)cc1 (repeat unit) | 27.00 °C
8 | *OC(=O)C(C)NC(=O)CCCCCCCCC(=O)NC(C)C(=O)OC1COC2C(*)COC12 (repeat unit) | 57.00 °C
9 | *CC(*)CCCCCCCCCCCCCCCCCC (repeat unit) | -88.00 °C
10 | *C1C(=O)N(CCCCOc2ccc(-c3ccc(C#N)cc3)cc2)C(=O)C1* (repeat unit) | 115.00 °C
11 | *C1OCCCC1C1C(=O)OC(=O)C1* (repeat unit) | 210.00 °C
12 | *c1ccc(OC(=O)c2cccc(C(=O)Oc3ccc(C4(*)C(=O)Nc5ccccc54)cc3)c2)cc1 (repeat unit) | 256.00 °C
13 | *CC(COCCCC)O* (repeat unit) | -79.00 °C
14 | *C(=O)c1ccc2c(c1)C(=O)N(c1cccc(C(=O)N(C)c3ccc(N4C(=O)c5ccc(*)cc5C4=O)cc3)c1)C2=O (repeat unit) | 260.50 °C
15 | *CCC(C)(C)CC(C)CNC(=O)CCCCC(=O)N* (repeat unit) | 65.00 °C
16 | *OC(=O)c1cccc(C(=O)Oc2ccc3c(c2)Oc2cc(*)ccc2C32OC(=O)c3ccccc32)c1 (repeat unit) | 276.00 °C
17 | *CCCC(C)CNC(=O)c1ccc(C(=O)N*)cc1 (repeat unit) | 153.00 °C
18 | *Oc1ccc(S(=O)(=O)c2ccc(Oc3ccc(C4(c5ccc(*)cc5)c5ccccc5-c5ccccc54)cc3)cc2)cc1 (repeat unit) | 278.50 °C
19 | *Oc1ccc(C(=O)c2ccc(Oc3ccc(C(=O)c4ccc(C(=O)c5ccc(*)cc5)cc4)cc3)cc2)cc1 (repeat unit) | 169.00 °C
20 | *c1ccc(Oc2ccc(C(=O)c3ccc4cc(C(=O)c5ccc(Oc6ccc(-c7nc(-c8ccccc8)[nH]c7*)cc6)cc5)ccc4c3)cc2)cc1 (repeat unit) | 248.00 °C
21 | *Oc1ccc(OC(=O)c2ccc(-c3ccc(C(*)=O)cc3)cc2-c2ccccc2)cc1 (repeat unit) | 140.00 °C
22 | *c1cc(CC(=O)OCC)c(*)s1 (repeat unit) | 56.70 °C
23 | *c1ccc(OCC2CCC(COc3ccc(-n4c(=O)c5cc6c(=O)n(*)c(=O)c6cc5c4=O)cc3)CC2)cc1 (repeat unit) | 306.70 °C
24 | *CCCCCCNC(=O)c1c(Cl)c(Cl)c(C(=O)N*)c(Cl)c1Cl (repeat unit) | 282.00 °C
25 | *CCC(C)O* (repeat unit) | -50.00 °C
26 | *CC(*)(C)C(=O)OCCc1ccc(/N=N/c2ccccc2)cc1 (repeat unit) | 80.00 °C

The next lines start with the values.

Row | glass transition temperature | Structure (SMILES)
27 | 228.00 °C | *Oc1ccc2c(c1)C1(CC2(C)C)CC(C)(C)c2ccc(OC(*)=O)cc21 (repeat unit)
28 | 334.00 °C | *c1ccc2oc(-c3ccc(C(c4ccc(-c5nc6cc(C(*)(c7ccccc7)C(F)(F)F)ccc6o5)cc4)(C(F)(F)F)C(F)(F)F)cc3)nc2c1 (repeat unit)
29 | 60.00 °C | *CC(*)(C)C(=O)OCCCCCOc1ccc(-c2ccc(C#N)cc2)cc1 (repeat unit)
30 | 268.00 °C | *c1cccc(-c2cc(C(=O)Nc3ccc(OC(=O)c4cc(OCCCCCCCCCCCC)c(OCCCCCCCCCCCC)c(OCCCCCCCCCCCC)c4)cc3)cc(-c3cccc(N4C(=O)c5ccc(S(=O)(=O)c6ccc7c(c6)C(=O)N(*)C7=O)cc5C4=O)c3)c2)c1 (repeat unit)
31 | 128.00 °C | *CCCCCCCCOc1ccc(NC(=O)c2cccc(C(=O)Nc3ccc(O*)cc3)c2)cc1 (repeat unit)
32 | 105.00 °C | *CCOCCOCCN1C(=O)c2ccc(C(=O)Oc3ccc(OC(=O)c4ccc5c(c4)C(=O)N(*)C5=O)c(-c4ccccc4)c3)cc2C1=O (repeat unit)
33 | 287.00 °C | *c1cccc(C(=O)c2c(C)cc(C)c(N3C(=O)c4ccc(Oc5ccc6c(c5)C(=O)N(*)C6=O)cc4C3=O)c2C)c1 (repeat unit)
34 | 215.00 °C | *Nc1cccc(C(=O)c2ccc(NC(=O)c3cccc(C(=O)c4ccc(C(*)=O)cc4)c3)cc2)c1 (repeat unit)
35 | 61.00 °C | *CC(*)(C)C(=O)OCCCCCCOc1ccc(/N=N/c2ccc(C#N)cc2)cc1 (repeat unit)
36 | 223.00 °C | *c1ccc(OC(=O)Nc2ccc(-c3ccc(NC(=O)Oc4ccc(-c5nc(-c6ccc(-c7nc(-c8ccc([N+](=O)[O-])cc8)c(-c8ccc([N+](=O)[O-])cc8)[nH]7)cc6)[nH]c5*)cc4)cc3OC)c(OC)c2)cc1 (repeat unit)
37 | 280.00 °C | *c1ccc(Oc2ccc(S(=O)(=O)c3ccc(Oc4ccc(-c5c6c(c(*)c7ccccc57)C(=O)N(c5ccc(Cl)cc5)C6=O)cc4)cc3)cc2)cc1 (repeat unit)
38 | 207.00 °C | *CC(C)(C)C1C(=O)N(c2ccccc2C)C(=O)C1* (repeat unit)
39 | 130.00 °C | *CC(c1ccccc1)C1C(=O)N(CCCOc2ccc(-c3ccc(C#N)cc3)cc2)C(=O)C1* (repeat unit)
40 | 186.00 °C | *c1ccc2c(c1)C(=O)N(c1ccc(Oc3ccc(N4C(=O)c5ccc(C(F)(F)C(F)(F)C(F)(F)C(F)(F)C(F)(F)C(F)(F)C(F)(F)C(*)(F)F)cc5C4=O)cc3)cc1)C2=O (repeat unit)
41 | 180.00 °C | *C(=O)c1ccc(Oc2c(C)cc(-c3cc(C)c(Oc4ccc(C(=O)c5ccc6nc(*)ccc6c5)cc4)c(C)c3)cc2C)cc1 (repeat unit)
42 | 300.00 °C | *=Cc1ccc(/C=N/c2c(-c3ccccc3)cc(-c3ccc(-c4cc(-c5ccccc5)c(N=*)c(-c5ccccc5)c4)cc3)cc2-c2ccccc2)cc1 (repeat unit)
43 | 104.00 °C | *CCCCOC(=O)OCCCCN1C(=O)c2ccc(-c3ccc4c(c3)C(=O)N(*)C4=O)cc2C1=O (repeat unit)
44 | 165.00 °C | */C=C/c1cc(CCCCCCCCCCCCCCCC)c(/C=C/c2nc(*)c(C#N)c(/C=C/c3ccc(N(c4ccccc4)c4ccccc4)cc3)c2C#N)cc1CCCCCCCCCCCCCCCC (repeat unit)
45 | 376.00 °C | *C(=O)Nc1cc(C(F)(F)F)ccc1Oc1cccc2c(Oc3ccc(C(F)(F)F)cc3NC(=O)c3ccc4c(c3)C(=O)N(c3ccc(Oc5ccc(N6C(=O)c7ccc(*)cc7C6=O)cc5-c5ccccc5)c(-c5ccccc5)c3)C4=O)cccc12 (repeat unit)

Row | glass transition temperature | Structure (SMILES)
46 | 95.00 °C | *CCOc1ccc(OC(=O)c2ccc(C(=O)Oc3ccc(O*)cc3)c(OCCCCC)c2)cc1 (repeat unit)
47 | 246.00 °C | *c1ccc(C(C)(C)c2ccc(C(C)(C)c3ccc(N4C(=O)c5ccc(Oc6ccc7ccc(Oc8ccc9c(c8)C(=O)N(*)C9=O)cc7c6)cc5C4=O)cc3)cc2)cc1 (repeat unit)
48 | -27.00 °C | *CC(*)c1ccc([Si](C)(C)O[Si](C)(C)O[Si](C)(C)C)cc1 (repeat unit)
49 | 288.00 °C | *C(=O)Nc1c(C)cc(C)c(NC(=O)c2ccc3c(c2)C(=O)N(c2c(C)cc(C)c(N4C(=O)c5ccc(*)cc5C4=O)c2C)C3=O)c1C (repeat unit)
50 | 39.00 °C | *CC(*)(C)C(=O)OCCCCCCOc1ccc2cc(C(=O)Oc3ccccc3)ccc2c1 (repeat unit)
51 | 213.00 °C | *c1ccc(Oc2ccc(C(c3ccc(Oc4ccc(-c5nnc(*)n5-c5ccc(C)cc5)cc4)cc3)(C(F)(F)F)C(F)(F)F)cc2)cc1 (repeat unit)
52 | 235.00 °C | *CCCCCCCCCCc1ccc(-c2c(-c3ccccc3)cc(-c3ccc(-c4cc(-c5ccccc5)c(-c5ccc(*)cc5)c(-c5ccccc5)c4-c4ccccc4)cc3)c(-c3ccccc3)c2-c2ccccc2)cc1 (repeat unit)
53 | 187.00 °C | *Oc1ccc(C(=O)c2ccc(NC(=O)c3ccc(C(=O)Nc4ccc(C(=O)c5ccc(*)cc5)cc4)cc3)cc2)cc1 (repeat unit)
54 | 126.00 °C | *c1ccc2c(c1)Sc1cc(-c3sc4cc(*)sc4c3CCCCC)ccc1N2CCCCCC (repeat unit)
55 | 110.00 °C | *Oc1ccc(-c2ccc(Oc3c(F)c(F)c(COC(c4cccc(C(OCc5c(F)c(F)c(*)c(F)c5F)(C(F)(F)F)C(F)(F)F)c4)(C(F)(F)F)C(F)(F)F)c(F)c3F)cc2)cc1 (repeat unit)
56 | 48.00 °C | *CC(*)C(=O)OCCCOc1ccc(C(=O)OCCCC(F)(F)C(F)(F)C(F)(F)C(F)(F)C(F)(F)C(F)(F)C(F)(F)C(F)(F)F)cc1 (repeat unit)
57 | 320.00 °C | *c1ccc(Oc2ccc(N3C(=O)c4ccc(-c5cccc6c5C(=O)N(*)C6=O)cc4C3=O)cc2)cc1 (repeat unit)
58 | -25.00 °C | *NC(CCC(=O)OCCCCCC)C(*)=O (repeat unit)
59 | 47.00 °C | *Cc1ccc(COC(=O)Cc2ccc(C(=O)O*)cc2)cc1 (repeat unit)
60 | 30.00 °C | *OC(=O)c1cccc(OCCCCCCCCCCOc2cccc(C(=O)OC3COC4C(*)COC34)c2)c1 (repeat unit)
61 | 30.00 °C | *CC(CCCCCCCCCCCCCCCC)C1C(=O)N(CCCCCCCCCCCC)C(=O)C1* (repeat unit)
62 | 172.00 °C | *Cc1cccc(CNC(=O)c2cccc(C(=O)N*)c2)c1 (repeat unit)
63 | 60.00 °C | *O[Si](*)(C)CCCOc1ccc(C(=O)Oc2ccc(-c3ccc(OC(=O)c4cc(OCC(C)CC)c(OCC(C)CC)c(OCC(C)CC)c4)cc3)cc2)cc1 (repeat unit)
64 | 157.00 °C | *Oc1ccc(Oc2ccc(C(=O)c3ccc(*)cc3)cc2)cc1-c1ccccc1 (repeat unit)
